Measurements taken from PubChem BioAssay (NCI).
Values joined by “and” are separate entries in the source; they are usually repeats but may differ in a detail not shown here. Equal entries are not always repeated.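 Step 1: Grow cells in 96-well plates. Step 2: Expose to compound for 48 hours at 5 concentrations. Step 3: Interpolate endpoints linearly; if unreached, use highest concentration. GI50 marks 50% less growth. TGI denotes the concentration required for complete inhibition of growth.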

What was measured:
Assay in all cases: NCI-60 cell line screen, 48 h
[1] = test system: A549 NSCLC
[2] = test system: HT29 colon
[3] = test system: LOX IMVI melanoma
[4] = test system: MOLT-4 leukemia
[5] = test system: NCI-H460 lung
[6] = test system: OVCAR-4 ovarian
[7] = test system: PC-3 prostate
[8] = test system: SK-MEL-5 melanoma
[9] = test system: SK-OV-3 ovarian
[10] = test system: SN12C renal
[11] = test system: SNB-75 CNS
[12] = test system: SR leukemia

Compound	TGI [1]	TGI [2]	TGI [3]	TGI [4]	TGI [5]	TGI [6]	TGI [7]	TGI [8]	TGI [9]	TGI [10]	TGI [11]	TGI [12]	GI50 [3] [µM]	GI50 [4] [µM]	GI50 [8] [µM]	GI50 [9] [µM]	GI50 [11] [µM]	GI50 [12] [µM]	GI50 [6] [µM]
CNC(=O)N(CCC#N)CCCN(C(=O)NC)c1ccccc1	> 100 µM	> 100 µM	> 100 µM	> 100 µM	> 100 µM	> 100 µM	> 100 µM	> 100 µM	> 100 µM	> 100 µM	> 100 µM	> 100 µM							
CC(=O)Nc1ccc(-c2nc3ccccc3s2)cc1I	> 100 µM	> 100 µM	> 81.7 µM	> 100 µM	> 100 µM	> 100 µM	> 100 µM	> 100 µM	38.2 µM	> 100 µM	67.4 µM	> 100 µM							
O=C(Nc1ccccc1)N(C1=NCC(CI)S1)c1ccc(F)cc1F (stereo not drawn)	> 100 µM	> 100 µM	35.2 µM	57 µM		> 100 µM	> 100 µM	> 100 µM	> 100 µM	> 100 µM	> 100 µM	65.7 µM							
COc1ccc2[nH]cc([C@@H]3C4CCC(C4)[C@H]3NCc3cccc(CN[C@H]4C5CCC(C5)[C@@H]4c4c[nH]c5ccc(OC)cc45)c3)c2c1	2.64 µM and 2.99 µM	1.81 µM and 0.63 µM	0.328 µM and 0.605 µM	3.76 µM and 1.29 µM	0.556 µM and 1.12 µM	2.77 µM and 2.75 µM	2.93 µM and 2.59 µM	2.52 µM and 2.99 µM	2.94 µM and 2.95 µM	3.1 µM and 2.93 µM	2.59 µM and 2.03 µM	0.78 µM and 1 µM	0.184	1.56	1.25	1.6	0.785	0.28	
Cc1oc2c(Cl)cc(O)c(Cl)c2c2cccc1-2	> 100 µM	> 100 µM	36.1 µM		> 100 µM	36.9 µM	> 100 µM	52.1 µM	> 100 µM	80.7 µM	20.7 µM	77 µM							
CCCCCCOc1ccc(C(=O)NO)cc1	43.3 µM	22.7 µM	20.7 µM	18.7 µM	20.8 µM	> 66.3 µM	35.2 µM	> 58.2 µM	60.3 µM	19.5 µM	> 67.2 µM	23.6 µM							
c1ccc(-n2nc3ccc4nonc4c3n2)cc1	> 100 µM	> 100 µM	> 100 µM	> 100 µM	> 100 µM	> 100 µM	> 100 µM	> 100 µM	> 100 µM	> 100 µM	> 100 µM	> 100 µM							
COc1cccc2c1OC(c1ccc(C#N)cc1)C([N+](=O)[O-])=C2 (stereo not drawn)	7.03 µM	3.14 µM	3.38 µM		4.92 µM	3.11 µM	4.13 µM	2.87 µM	7.67 µM	4.37 µM	7.32 µM	3.11 µM							
CC(NC(=O)c1ccccc1)NC(=O)C(C)C(=O)Nc1ccccc1 (stereo not drawn)	> 100 µM	> 100 µM		> 100 µM	> 100 µM	> 100 µM	> 100 µM	> 100 µM	> 100 µM	> 100 µM	> 100 µM	> 100 µM							
C=C(C)[C@@]1(OC(=O)c2cc([N+](=O)[O-])cc([N+](=O)[O-])c2)C[C@@H]2CCCC[C@@H]21	> 100 µM	> 100 µM	> 100 µM	> 100 µM	> 100 µM	> 100 µM	> 100 µM		> 100 µM	> 100 µM	> 100 µM	> 100 µM							
COCCCNC(=O)C1=C(C)NC(C)=C(C(=O)NCCCOC)C1	> 100 µM	> 100 µM	> 100 µM	> 100 µM	> 100 µM	> 100 µM	> 100 µM	> 100 µM	> 100 µM	> 100 µM	> 100 µM	> 100 µM							
CC(=O)Nc1ccc2[nH]c(-c3cccc(Cl)c3)cc(=O)c2c1	> 100 µM	33.7 µM		> 100 µM		> 100 µM	> 100 µM	> 100 µM	68.5 µM	> 100 µM	> 100 µM	> 100 µM							> 100
Cc1ccc(Nc2c(C#N)[n+]([O-])c3cc(Cl)ccc3[n+]2[O-])cc1	> 100 µM	> 61.1 µM	> 100 µM	> 100 µM	> 100 µM	> 100 µM	> 100 µM		> 100 µM	> 100 µM	> 100 µM	> 36.3 µM							
CC(SC(=S)N1CCOCC1)C(=O)Nc1nnc(-c2ccccc2)o1 (stereo not drawn)	> 100 µM	> 100 µM	> 100 µM	> 100 µM	> 100 µM	> 100 µM	> 100 µM	> 100 µM	> 100 µM	> 100 µM	> 100 µM	> 100 µM							
CCOC(=O)[C@@]12C[C@](/C=C/OC)(O[Si](C)(C)C)[C@@]13c1cc(OC)c(OC)cc1CCN3C(=O)C2O (stereo partly drawn)	> 100 µM	> 100 µM	> 100 µM	> 100 µM	> 100 µM	> 100 µM	> 100 µM	> 100 µM	> 100 µM	> 100 µM	> 100 µM	> 100 µM							
C[n+]1c(-c2ccc(/C=N/NC(=O)C(=O)N/N=C/c3ccc(-c4cn5ccsc5[n+]4C)cc3)cc2)cn2ccsc21	> 100 µM	> 100 µM		> 100 µM	> 100 µM	> 100 µM	> 100 µM	> 100 µM	> 100 µM	> 100 µM	> 100 µM	> 100 µM							
C=CCSC1=N/C(=C\c2cccs2)C(=O)N1CC=C	> 100 µM	> 100 µM	> 100 µM	62.2 µM	> 100 µM	> 100 µM	> 100 µM	> 100 µM	> 100 µM	> 100 µM		> 100 µM							
O=C(CSc1nc2[nH]ncc2c(=O)[nH]1)c1ccc(Cl)cc1	> 100 µM	> 100 µM	> 100 µM	> 100 µM	> 100 µM	> 100 µM	> 100 µM	> 100 µM	> 100 µM	> 100 µM	> 100 µM	> 100 µM							
c1cc2c(c(NC3=NCCO3)c1)CCC2	> 100 µM	> 100 µM	> 100 µM	> 100 µM	> 100 µM	> 100 µM	> 100 µM	> 100 µM	> 100 µM	> 100 µM		> 100 µM							
CCN(CC)c1ccc2cc(C(=O)Nc3ccccc3)c(=N)oc2c1	> 100 µM	> 100 µM	> 100 µM	> 100 µM	> 100 µM	> 100 µM	> 100 µM	> 100 µM	> 100 µM	> 100 µM	> 100 µM	> 100 µM							
CN(NC(=O)c1cccs1)C1=NCCCCN1	> 100 µM	> 100 µM	> 100 µM	> 100 µM	> 100 µM	> 100 µM	> 100 µM	> 100 µM	> 100 µM		> 100 µM	> 100 µM							
COC(=O)[C@@H]1CN(C(C)=O)C(=O)N1C(=O)OCc1ccccc1	> 100 µM	> 100 µM	> 100 µM	> 100 µM	> 100 µM	> 100 µM	> 100 µM	> 100 µM	> 100 µM	> 100 µM		> 100 µM							
Cc1nc(N/N=C/c2ccccc2Cl)[nH]c(=O)c1CCO	> 100 µM	> 100 µM	> 100 µM	> 100 µM	> 100 µM	> 100 µM	> 100 µM	> 100 µM	43.4 µM	> 100 µM	41.4 µM	> 100 µM							
Oc1ccc(N=C2CCC(=C(c3ccccc3)c3ccc(Nc4ccc(O)cc4)cc3)CC2)cc1	> 100 µM	> 100 µM	> 100 µM	> 100 µM	> 100 µM	> 100 µM	> 100 µM	> 100 µM	> 100 µM	> 100 µM		> 100 µM							
CC(C)NC(=O)OCc1c(COC(=O)NC(C)C)c(-c2cc[n+](COC(=O)C(C)(C)C)cc2)n2c1CCC2	> 100 µM	> 100 µM	> 100 µM	> 100 µM	> 100 µM	> 100 µM	> 100 µM	> 100 µM	> 100 µM	> 100 µM	> 100 µM	> 100 µM							
CC(=O)CSc1c(-c2ccccc2)c(=O)n(-c2ccccc2)c(=S)n1-c1ccccc1	> 100 µM	> 100 µM	> 100 µM	> 100 µM	> 100 µM	> 100 µM	> 100 µM	> 100 µM	> 100 µM	> 100 µM	> 100 µM	> 100 µM							
CN(N)c1cc(=O)[nH]c(=O)[nH]1	> 100 µM	> 100 µM	> 100 µM	> 100 µM	> 100 µM	> 100 µM	> 100 µM	> 100 µM	> 100 µM	> 100 µM		> 100 µM							
CC(=O)Nc1cc2c3c(c1)CCCN3CCC2	> 100 µM	> 100 µM	> 100 µM	> 100 µM	> 100 µM	> 100 µM	> 100 µM	> 100 µM	> 100 µM		> 100 µM	> 100 µM							
COc1cc(OC)c2nc(C)c3c(c2c1)NCC3	34.1 µM	15.5 µM	15 µM		12 µM	15.6 µM	20 µM	21.6 µM	49.6 µM	18.9 µM	26.6 µM	7.08 µM							
